Values of other authors in patent US11931445B2, “Composition comprising baicalin” (L'OREAL, priority 2016, dated 2024).

Key:
[1] = pH more than 6.5

Baicalin
solubility in an aqueous medium: very slightly soluble
chemical stability [1]: chemically unstable
